Where “and” joins values, the source holds several entries; their conditions need not be identical. Identical values can stand only once. Like-named read-outs stand apart in the source and are kept apart here.
Experiments:
Format in all cases: cell-based, human
NALM-6 leukemia cells = experiment: Mitochondrial transmembrane potential, JC-1 staining, flow cytometry
Experimental: To measure the changes in mitochondria, NALM-6 cells were incubated with compound 29 at concentrations ranging from 0.1 μM to 1 μM for 24 hr, 48 hr, 72 hr or 96 hr, stained with specific fluorescent dyes and analyzed with flow cytometer. Mitochondrial membrane potential (ΔΨm) was measured using two dyes including a lipophollic cation 5,5′,6,6′-tetrachloro-1,1′,3,3′-tetraethlybenzimidazolylcarbocyanine iodide (JC-1; Molecular probes, Eugene, Oreg.) and a cyanine dye, 1,1′,3,3,3′,3′-hexamethylindodicarbocyanine iodide [DiIC1(5); Molecular probes] as earlier described (22). JC-1 can enter the cells, and selectively mitochondria, and has been used to assess ΔΨm in a variety of studies (23,24). JC-1 is a monomer at 527 nm after being excited at 490 nm; with polarization of ΔΨm, J-aggregates are formed that shift emission to 590 nm (23, 24). This can be detected on a flow cytometer by assessing the green signal (at 527 nm) and green-orange signal (at 590 nm) simultaneously, creating an index of the number of cells polarized and depolarized mitochondria. The treated and control cells were washed and plated in a 6-well plate at 1×10^6 cells in fresh medium. JC-1 was added at a concentration of 10 μg/ml, and cells were incubated for 10 min in the dark at room temp. Cells were then washed twice with ice-cold PBS and immediately analyzed using Becton Dickinson (San Jose, Calif.) Calibur flow cytometer. At least 2×10^3 cells were analyzed to determine the percentage of cells with polarized and depolarized mitochondria. DiIC1(5), a cyanine dye is amphioatheic and cationic that concentrate in energized mitochondria and has been used in a variety of studies to measure the mitochondrial membrane potential (25–27). NALM-6 cells were stained with DiIC1(5) at 40 nM concentration for 30 min in the dark as described for JC-1. The cells were analyzed using Vantage Becton Dickinson cell sorter equipped with HeNe laser with excitation at 635 nm and the fluorescence was collected at 666 nm.

[1] = system: Tera-2 testicular cancer cells; experiment: MTT cytotoxicity assay of vanadocenes, TERA-2 cells; conditions: 24 h, 1.9-250 μM
How it was run: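 Cells seeded in triplicate, after 24 h exposed to two-fold serial dilutions of vanadocenes (1.9–250 μM; DMSO vehicle, 0.25% DMSO control) for 24 h. MTT added for 4 h at 37 °C, formazan dissolved in SDS/HCl overnight, OD read at 540 nm; IC50 values reported.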

[2] = system: NALM-6 B-lineage acute lymphoblastic leukemia cells; experiment: MTT cytotoxicity assay of vanadocenes, NALM-6 cells; conditions: 24 h
Experimental: Human testicular cancer cell lines, Tera-2 (embryonal carcinoma) and Ntera-2 (pluripotent embryonal carcinoma) were obtained from the American Type Culture Collection (ATCC) (Rockeville, Md.) and propagated in T-25, T-75, or T-150 cm^2 tissue culture flasks (Corning Corp., Corning, N.Y.) in McCoy's 5A medium and Dulbecco's modified Eagle's medium respectively. Both media were supplemented with 10% fetal calf serum (FCS), 4 mM glutamine, 100 U/ml penicillin G, and […] streptomycin sulfate. All tissue culture reagents were obtained from Life Technologies Inc. (GIBCO-BRL), Gaithersburg, Md. Cell lines were cultivated for a minimum of two passages after thawing prior to experimentation. Other cell lines that were used in this study were the human B-lineage acute lymphoblastic leukemia (ALL) cell line NALM-6. Uckun, F. M., Evans, W. E., Forsyth, C. J., Waddick, K. G., Tuel-Ahlgren, L., Chelstrom, L. M., Burkhardt, A., Bolen, J., Myers, D. E. Biotherapy of B-cell precursor leukemia by targeting genistein to CD19-associated tyrosine kinase. Science (Washington DC) 267:886–91, 1995; T-lineage ALL cell line MOLT-3, Waurzyniak, B., Shneider, E. A., Tumer, N., Yanishevski, Y., Gunther, R., Chelstrom, L., Wendorf, H., Myers, D. E., Irvin, J. D., Messinger, Y., Ek, O., Zeren, T., Chandan-Langlie, M., Evans, W. E., Uckun, F. M. In vivo toxicity, pharmacokinetics, and antileukemic activity of TXU (anti-CD7)-pokeweed antiviral protein immunotoxin. Clinical Cancer Research 3:881–890, 1997; AML cell line HL-60, Perentesis, J. P., Waddick, K. G., Bendel, A. E., Shao, Y., Warman, B. E., Chandan-Langlie, M., and Uckun, F. M. Induction of apoptosis in multi-drug resistant andradiation-resistant acute myeloid leukemia cells by a recombinant fusion toxin directed against the granulocyte macrophage colony stimulating factor receptor. Clin. Cancer Res. 3:347–355, 1997; breast cancer cell lines MDA-MB-231 and BT-20, Uckun, F. M., Narla, R. K., Jun, X., Zeren, T., Venkatachalam, T., Waddick, K. G., Rostostev, A., Myers, D. E. Cytotoxic activity of EGF-genstein against breast cancer cells. Clin. Cancer Res. 4:901–912, 1998; glioblastoma cell lines U87 and U373, Narla, R. K., Liu, X., Myers, D. E., and Uckun, F. M. 4-(3′-Bromo-4′hydroxylphenyl)-amino-6,7-dimethoxyquinazoline (WHI-P154): A novel quinazoline derivative with potent cytotoxic activity against human glioblastoma cells. Clin. Cancer Res. 4:1405–1414, 1998.
MTT (3-[4,5-dimethyl thiazol-2-yl]-2,5-diphenyltetrazolium bromide)-based colorimetric assays were used for evaluation of the cytotoxicity of vanadocene compounds. Mosmann, T. Rapid colorimetric assay for cellular growth and survival: application to proliferation and cytotoxicity assays. J. Immunol. Methods, 65: 55–63, 1983. Briefly, cells were harvested with 0.125% (w/v) trypsin-0.02% EDTA (GIBCO-BRL) from exponential-phase maintenance cultures and centrifuged (300 g×5 min). After suspension and counting, cells were dispensed within triplicate 96-well tissue culture plates in 100 μl volumes. After 24 h incubation, the culture medium was discarded and replaced with 100 μl of fresh medium containing serial two-fold dilutions of drugs in medium to yield 1.9 μM to 250 μM. All compounds were reconstituted in DMSO to a concentration of 100 mM, and the stock solution was made fresh for each experiment. Control wells consisted of medium containing 0.25% of DMSO alone were used for solvent control. […]

Row | EC50 (NALM-6 leukemia cells; 24 hr treatment, read-out: average EC50 for depolarization of mitochondria (JC-1 red/orange fluorescence), 24 hr) [µM] | EC50 (NALM-6 leukemia cells; 48 hr treatment, read-out: average EC50 for depolarization of mitochondria (JC-1 red/orange fluorescence), 48 hr) [µM] | Compound | fraction of JC-1 red/orange fluorescence-positive cells, 48 hr (NALM-6 leukemia cells; 500 nM, 48 hr (vehicle 98.6%)) [%] | fraction of JC-1 red/orange fluorescence-positive cells, 72 hr (NALM-6 leukemia cells; 500 nM, 72 hr (vehicle 98.6%)) [%] | IC50 [1] | IC50 [2] [µM]
1 | 4.2 | 0.5 | bis(4,7-dimethyl-1,10-phenanthroline)sulfatooxovanadium(IV) [Compound 29] | 56.1 | 8.4 | – | –
2 | – | – | [Cl-].[Cl-].[V+4].c1cc[cH-]c1.c1cc[cH-]c1 [VDC, VCp2Cl2] | – | – | 80.6 µM and 81 µM | 19
